Assay results: the supplement of paper PMC10307832

How the values were obtained:
Test in all cases: relative viability (nuclei count vs DMSO), 5 days (fraction); higher = more cells survive
201T = test system: 201T
Outline: (§1)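 Five library-drug doses in √10 steps were combined with a fixed anchor-drug dose, or a single drug was given alone, by pin tool to lung cancer cell lines in 1536-well plates the day after seeding. Nuclei were stained and counted after 5 days. Relative viability is the nuclei count in treated wells over that in vehicle wells, taken as the median of duplicate plates.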

BEN = test system: BEN
Outline: as §1

CAL-12T = test system: CAL-12T
Outline: as §1

HCC-827 = test system: HCC-827
Outline: as §1

HOP-62 = test system: HOP-62
Outline: as §1

LCLC-103H = test system: LCLC-103H
Outline: as §1

LCLC-97TM1 = test system: LCLC-97TM1
Outline: as §1

LXF-289 = test system: LXF-289
Outline: as §1

NCI-H1395 = test system: NCI-H1395
Outline: as §1

NCI-H1437 = test system: NCI-H1437
Outline: as §1

NCI-H1650 = test system: NCI-H1650
Outline: as §1

NCI-H1793 = test system: NCI-H1793
Outline: as §1

NCI-H1944 = test system: NCI-H1944
Outline: as §1

NCI-H2087 = test system: NCI-H2087
Outline: as §1

NCI-H2228 = test system: NCI-H2228
Outline: as §1

NCI-H2405 = test system: NCI-H2405
Outline: as §1

NCI-H3122 = test system: NCI-H3122
Outline: as §1

NCI-H322M = test system: NCI-H322M
Outline: as §1

NCI-H647 = test system: NCI-H647
Outline: as §1

NCI-H727 = test system: NCI-H727
Outline: as §1

RERF-LC-KJ = test system: RERF-LC-KJ
Outline: as §1

SK-LU-1 = test system: SK-LU-1
Outline: as §1

Oc1nc(-c2ccc(C(F)(F)F)cc2)nc2c1CSCC2 [XAV939] + COc1cc2c(Oc3ccc(NC(=O)C4(C(=O)Nc5ccc(F)cc5)CC4)cc3F)ccnc2cc1OCCCN1CCOCC1 [Foretinib] (partner 0.25 µM)
relative viability (201T; first compound 0.08 µM): 0.88 | relative viability (201T; first compound 0.253 µM): 0.705 | relative viability (201T; first compound 0.8 µM): 0.861 | relative viability (201T; first compound 2.53 µM): 0.746 | relative viability (BEN; first compound 0.08 µM): 0.71 | relative viability (BEN; first compound 0.253 µM): 0.631 | relative viability (BEN; first compound 0.8 µM): 0.577 | relative viability (BEN; first compound 2.53 µM): 0.546 | relative viability (CAL-12T; first compound 0.08 µM): 1.06 | relative viability (CAL-12T; first compound 0.253 µM): 1.06 | relative viability (CAL-12T; first compound 0.8 µM): 1.15 | relative viability (CAL-12T; first compound 2.53 µM): 1.09 | relative viability (HCC-827; first compound 0.08 µM): 1.11 | relative viability (HCC-827; first compound 0.253 µM): 0.996 | relative viability (HCC-827; first compound 0.8 µM): 1.06 | relative viability (HCC-827; first compound 2.53 µM): 0.989 | relative viability (HOP-62; first compound 0.08 µM): 1.23 | relative viability (HOP-62; first compound 0.253 µM): 1.04 | relative viability (HOP-62; first compound 0.8 µM): 0.996 | relative viability (HOP-62; first compound 2.53 µM): 0.943 | relative viability (LCLC-103H; first compound 0.08 µM): 0.853 | relative viability (LCLC-103H; first compound 0.253 µM): 0.643 | relative viability (LCLC-103H; first compound 0.8 µM): 0.748 | relative viability (LCLC-103H; first compound 2.53 µM): 0.659 | relative viability (LCLC-97TM1; first compound 0.08 µM): 0.919 | relative viability (LCLC-97TM1; first compound 0.253 µM): 0.796 | relative viability (LCLC-97TM1; first compound 0.8 µM): 0.897 | relative viability (LCLC-97TM1; first compound 2.53 µM): 0.936 | relative viability (LXF-289; first compound 0.08 µM): 0.985 | relative viability (LXF-289; first compound 0.253 µM): 0.95 | relative viability (LXF-289; first compound 0.8 µM): 0.967 | relative viability (LXF-289; first compound 2.53 µM): 0.988 | relative viability (NCI-H1395; first compound 0.08 µM): 1.07 | relative viability (NCI-H1395; first compound 0.253 µM): 0.783 | relative viability (NCI-H1395; first compound 0.8 µM): 1 | relative viability (NCI-H1395; first compound 2.53 µM): 0.961 | relative viability (NCI-H1437; first compound 0.08 µM): 1.3 | relative viability (NCI-H1437; first compound 0.253 µM): 1.18 | relative viability (NCI-H1437; first compound 0.8 µM): 1.21 | relative viability (NCI-H1437; first compound 2.53 µM): 0.989 | relative viability (NCI-H1650; first compound 0.08 µM): 1.16 | relative viability (NCI-H1650; first compound 0.253 µM): 1.25 | relative viability (NCI-H1650; first compound 0.8 µM): 1.09 | relative viability (NCI-H1650; first compound 2.53 µM): 0.625 | relative viability (NCI-H1793; first compound 0.08 µM): 0.846 | relative viability (NCI-H1793; first compound 0.253 µM): 0.558 | relative viability (NCI-H1793; first compound 0.8 µM): 0.63 | relative viability (NCI-H1793; first compound 2.53 µM): 0.454 | relative viability (NCI-H1944; first compound 0.08 µM): 0.942 | relative viability (NCI-H1944; first compound 0.253 µM): 0.842 | relative viability (NCI-H1944; first compound 0.8 µM): 0.814 | relative viability (NCI-H1944; first compound 2.53 µM): 0.704 | relative viability (NCI-H2087; first compound 0.08 µM): 1.04 | relative viability (NCI-H2087; first compound 0.253 µM): 1.03 | relative viability (NCI-H2087; first compound 0.8 µM): 1.02 | relative viability (NCI-H2087; first compound 2.53 µM): 0.677 | relative viability (NCI-H2228; first compound 0.08 µM): 0.98 | relative viability (NCI-H2228; first compound 0.253 µM): 0.874 | relative viability (NCI-H2228; first compound 0.8 µM): 0.91 | relative viability (NCI-H2228; first compound 2.53 µM): 0.847 | relative viability (NCI-H2405; first compound 0.08 µM): 0.99 | relative viability (NCI-H2405; first compound 0.253 µM): 1.01 | relative viability (NCI-H2405; first compound 0.8 µM): 1.03 | relative viability (NCI-H2405; first compound 2.53 µM): 1.01 | relative viability (NCI-H3122; first compound 0.08 µM): 0.926 | relative viability (NCI-H3122; first compound 0.253 µM): 0.918 | relative viability (NCI-H3122; first compound 0.8 µM): 0.942 | relative viability (NCI-H3122; first compound 2.53 µM): 0.909 | relative viability (NCI-H322M; first compound 0.08 µM): 1.11 | relative viability (NCI-H322M; first compound 0.253 µM): 0.921 | relative viability (NCI-H322M; first compound 0.8 µM): 0.778 | relative viability (NCI-H322M; first compound 2.53 µM): 0.609 | relative viability (NCI-H647; first compound 0.08 µM): 1.21 | relative viability (NCI-H647; first compound 0.253 µM): 0.958 | relative viability (NCI-H647; first compound 0.8 µM): 0.991 | relative viability (NCI-H647; first compound 2.53 µM): 0.609 | relative viability (NCI-H727; first compound 0.08 µM): 0.997 | relative viability (NCI-H727; first compound 0.253 µM): 0.774 | relative viability (NCI-H727; first compound 0.8 µM): 0.821 | relative viability (NCI-H727; first compound 2.53 µM): 0.928 | relative viability (RERF-LC-KJ; first compound 0.08 µM): 0.781 | relative viability (RERF-LC-KJ; first compound 0.253 µM): 0.738 | relative viability (RERF-LC-KJ; first compound 0.8 µM): 0.792 | relative viability (RERF-LC-KJ; first compound 2.53 µM): 0.681 | relative viability (SK-LU-1; first compound 0.08 µM): 0.861 | relative viability (SK-LU-1; first compound 0.253 µM): 0.756 | relative viability (SK-LU-1; first compound 0.8 µM): 0.883 | relative viability (SK-LU-1; first compound 2.53 µM): 0.78
